One series is described as follows: in vitro. The conditions noted are these: human. Here is the method:
(§1) Antiviral activity was measured using an inducible HBV expression system, AD38 cells. (Ladner, S. K. et al., Antimicrob Agents Chemother 41, 1715-20 (1997)). Initial experiments tested the activity of 10 μM HAP (percentage viral assembly at 24 hour). For active molecules, effective concentrations were determined for suppression of HBV production by 50% and by 90%; this value is reported in μM. Compound toxicity was tested in the parent cell line, HepG2. […] All of these experiments were performed blind, in the laboratory of Raymond Schinazi (Emory University).

In another series the test system is HepG2. The experiment in a line: in vitro. Here is the method: as §1
The test system of series [1] is HBV production in HepAD38 (AD38) cells. As to the kind of experiment: Antiviral activity, inducible HBV expression system, AD38 cells. Format: cell-based, hepatitis B virus. The conditions noted are these: for EC90: suppression of HBV production by 90%.
Experimental: Antiviral activity was measured using an inducible HBV expression system, AD38 cells. […] Initial experiments tested the activity of 10 μM HAP (percentage viral assembly at 24 hour). For active molecules, effective concentrations were determined for suppression of HBV production by 50% and by 90%; this value is reported in μM.
The target in series [2] is labeled HBV core protein dimer, Cp150Bo (Hepatitis B virus genotype D subtype adw, UniProt P03147, C107A/C48A/C61A/R150C). The experiment in a line: Fluorescence quenching assay of HBV assembly. It is filed as biochemical. The settings on record: single time point 24 hr after assembly initiated with NaCl, about 30±15% assembly without stimulation.
Sequence of labeled HBV core protein dimer, Cp150Bo (P03147 1-150 C48A/C61A/C107A/R150C): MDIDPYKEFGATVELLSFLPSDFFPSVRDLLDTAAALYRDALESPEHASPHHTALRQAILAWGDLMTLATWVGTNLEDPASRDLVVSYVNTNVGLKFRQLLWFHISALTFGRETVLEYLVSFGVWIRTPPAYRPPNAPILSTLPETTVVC
Where [3] appears, read: value in parentheses in CC50 cell.
[4] abbreviates: suppression of HBV production by 50%, read-out: HepAD38 EC50.

Where “and” joins values, the source holds several entries; their conditions need not be identical. Identical values can stand only once. Like-named read-outs stand apart in the source and are kept apart here.

In general, inhibition refers to how much of the control response was suppressed. Low values mean a response near the control, high ones a response far below the control. Usually EC50 stands for the midpoint of the concentration-response curve. Usually EC90 stands for the point of the concentration-response curve where the effect stands at 90%. Low values mean greater potency, high ones weaker potency. One may read the % Inhibition as the drop in the measured response relative to a control, in per cent. A high value points to a response far below the control.

Turning to `Nc1ccn([C@@H]2CS[C@H](CO)O2)c(=O)n1` [Compound 3TC, lamivudine, reference compound], the CC50 in “in vitro” was greater than 100000 nM. Further, in the series on HepG2, the “(YI) ratio of CC50/EC50, therapeutic index” value is listed as greater than 1000. Besides, 10 µM produced 98.6% inhibition in series [1] (Hepatitis B virus, HePAD38, compound at 10 μM). Further, the EC50 in series [1] (Hepatitis B virus, HePAD38, suppression of HBV production by 50%, read-out: HepAD38 EC50) was found to be 60 nM. In series [1] (Hepatitis B virus, HePAD38), the 90% effect level (EC90) was put at 200 nM. In addition, the Δ-Ct-HBV in series [1] (compound at 10 μM) was 6.17. In the case of `C#CCOCC1(COCC#C)COC2(CCN(CC3=C(C(=O)OC)C(c4ccc(F)cc4Cl)N=C(c4ccccn4)N3)CC2)OC1` (stereo not shown) [Compound B67], the Assembly in series [2] is 84%. For the compound `COC(=O)C1=C(CNCCOCCOCCN=[N+]=[N-])NC(c2ccccn2)=NC1c1ccc(F)cc1Cl` (stereo not shown) [Compound B68], the Assembly in series [2] is reported as 49%.

The compound `COC(=O)C1=C(CN2CCC3=NN(C)C(=O)C3C2)NC(c2ccccn2)=NC1c1ccc(F)cc1Cl` (stereo not shown) [Compound B69] gave an Assembly in series [2] of 54%. Consider `C#CCNC(=O)CCCC(=O)N1CCN(CC2=C(C(=O)OC)C(c3ccc(F)cc3Cl)N=C(c3ccccn3)N2)CC1` (stereo not shown) [Compound B71], for which the Assembly in series [2] was 133%. Compound `COC(=O)C1=C(CN2CCN(CCOCCN=[N+]=[N-])CC2)NC(c2ccccn2)=NC1c1ccc(F)cc1Cl` (stereo not shown) [Compound B72] showed an Assembly in series [2] of 29%.

In turn, `COC(=O)C1=C(CN2CCN(CCOCCOCCN=[N+]=[N-])CC2)NC(c2ccccn2)=NC1c1ccc(F)cc1Cl` (stereo not shown) [Compound B74] had an Assembly in series [2] of 21%.

`C#CCCCCC(=O)N1CCN(CC2=C(C(=O)OC)C(c3ccc(F)cc3Cl)N=C(c3ccccn3)N2)CC1` (stereo not shown) [Compound B75] displayed an Assembly in series [2] of 134%. The same measure, in the same setting: next, `COC(=O)C1=C(CN2CCOCC2)NC(c2ccncc2)=NC1c1ccc(F)cc1Cl` (stereo not shown) [Compound B76]: 36%; `COC(=O)C1=C(C)NC(=S)NC1c1ccc(F)cc1Cl` (stereo not shown) [Compound B77]: 15%. `COC(=O)C1=C(C)NC(c2ccncc2)=NC1c1ccc(F)cc1Cl` (stereo not shown) [Compound B-1] gave an Assembly in series [2] of 78%.

With `CC1=C(C(=O)OCCN=[N+]=[N-])C(c2ccc(F)cc2Cl)N=C(c2ccncc2)N1` (stereo not shown) [Compound B-2], the Assembly in series [2] was 51%. The same measure, in the same setting: for `C#CCNC(=O)C1=C(C)NC(c2ccncc2)=NC1c1ccc(F)cc1Cl` (stereo not shown) [Compound B-3] the value was 48%. In turn, `COC(=O)C1=C(C)NC(c2nc3ccc(OC)cc3s2)=NC1c1ccc(F)cc1Cl` (stereo not shown) [Compound B-4] yielded an Assembly in series [2] of 56%.

Turning to `CC1=C(C(=O)OCCC2CCC(CNS(=O)(=O)c3cccc4c(N(C)C)cccc34)C2)C(c2ccc(F)cc2Cl)N=C(c2ccncc2)N1` (stereo not shown) [Compound B-5], the Assembly in series [2] worked out at 54%. Take `COC(=O)C1=C(C)NC(c2ccccn2)=NC1c1ccc(F)cc1Cl` (stereo not shown) [Compound B-6]: the Assembly in series [2] is given as 95%. With `COC(=O)C1=C(C)NC(c2ccccc2)=NC1c1ccc(F)cc1Cl` (stereo not shown) [Compound B-7], in series [2], the Assembly came to 96%. In turn, `C#CCOC(=O)C1=C(C)NC(c2ccccn2)=NC1c1ccc(F)cc1Cl` (stereo not shown) [Compound B-12] gave an Assembly in series [2] of 83%. `CC1=C(C(=O)NCc2cn(CCN3C(=O)c4ccccc4C3=O)nn2)C(c2ccc(F)cc2Cl)N=C(c2ccncc2)N1` (stereo not shown) [Compound B-13] gave an Assembly in series [2] of 55%.

Regarding `C#CCNC(=O)c1ccc(C2=NC(c3ccc(F)cc3Cl)C(C(=O)OC)=C(C)N2)nc1` (stereo not shown) [Compound B-15], in series [2], the Assembly stood at 48%. The same measure, in the same setting: for `COC(=O)C1=C(C)NC(c2ccc(Br)cn2)=NC1c1ccc(F)cc1Cl` (stereo not shown) [Compound B-17] the value was 87%; for `COC(=O)C1=C(C)NC(c2ccccn2)=NC1c1ccc(F)cc1Br` (stereo not shown) [Compound B-18], 93%; for `CCOC(=O)C1=C(c2ccccc2)NC(c2ccccn2)=NC1c1ccc(F)cc1Cl` (stereo not shown) [Compound B-22], 77%. Compound `CCOC(=O)C1=C(c2ccccn2)NC(c2ccccn2)=NC1c1ccc(F)cc1Cl` (stereo not shown) [Compound B-23] gave an Assembly in series [2] of 47%. Compound `COC(=O)C1=C(C(C)C)NC(c2ccccn2)=NC1c1ccc(F)cc1Cl` (stereo not shown) [Compound B-24] came in with an Assembly in series [2] of 70%. In series [2], `COC(=O)C1=C(CCl)NC(c2ccccn2)=NC1c1ccc(F)cc1Cl` (stereo not shown) [Compound B-25] yielded an Assembly of 54%. As to `C#CCNCC1=C(C(=O)OC)C(c2ccc(F)cc2Cl)N=C(c2ccccn2)N1` (stereo not shown) [Compound B-34], in series [2], the Assembly came to 65%. In turn, `COC(=O)C1=C(CN2CCCC2)NC(c2ccccn2)=NC1c1ccc(F)cc1Cl` (stereo not shown) [Compound B-35] displayed an Assembly in series [2] of 87%. As for `COC(=O)C1=C(CN2CCNCC2)NC(c2ccccn2)=NC1c1ccc(F)cc1Cl` (stereo not shown) [Compound B-36], the Assembly in series [2] worked out at 92%. In series [2], `COC(=O)C1=C(CN2CCN(Cc3ccc(Br)cc3)CC2)NC(c2ccccn2)=NC1c1ccc(F)cc1Cl` (stereo not shown) [Compound B-54] returned an Assembly of 21%. The compound `COC(=O)C1=C(CN2CCN(Cc3ccccn3)CC2)NC(c2ccccn2)=NC1c1ccc(F)cc1Cl` (stereo not shown) [Compound B-55] yielded an Assembly in series [2] of 60%. Still for that read-out and setting: next, `COC(=O)C1=C(CN2CCN(CC3CCCCC3)CC2)NC(c2ccccn2)=NC1c1ccc(F)cc1Cl` (stereo not shown) [Compound B-56]: 15%; `CCOC(=O)C1=C(CNC23CC4CC(CC(C4)C2)C3)NC(c2ccccn2)=NC1c1ccc(F)cc1Cl` (stereo not shown) [Compound B-57]: 49%. Still for that read-out and setting: next, `CCOC(=O)C1=C(CNCC23CC4CC(CC(C4)C2)C3)NC(c2ccccn2)=NC1c1ccc(F)cc1Cl` (stereo not shown) [Compound B-58]: 42%; `C#CC(O)(C#C)C1CCN(CC2=C(C(=O)OC)C(c3ccc(F)cc3Cl)N=C(c3ccccn3)N2)CC1` (stereo not shown) [Compound B-59]: 57%. The compound `COC(=O)C1=C(CN2CCCCC2)NC(c2ccccn2)=NC1c1ccc(F)cc1Cl` (stereo not shown) [Compound B-60] gave an Assembly in series [2] of 60%. As for `COC(=O)C1=C(CN2CCOCC2)NC(c2ccccn2)=NC1c1ccc(F)cc1Cl` (stereo not shown) [Compound B-061], the CC50 in the series with HepG2 was greater than 100000 nM. In addition, in the series on HepG2 (setting [3]), the “(YI) ratio of CC50/EC50, therapeutic index” value is listed as greater than 200. For the same compound, the EC50 in series [1] (given in place of % inhibition at 10 μM, read-out: EC50 (printed in % Inhibition column)) was 550 nM; in series [1] (setting [4]) it was 490 nM. This compound also registered an EC90 in series [1] of 1000 nM. In addition, the Assembly is 99% in series [2] (listed as B61); 51% and 80% in series [2] (listed as B-61). `COC(=O)C1=C(CN2CCN(C(=O)CCCC(=O)NCCCN=[N+]=[N-])CC2)NC(c2ccccn2)=NC1c1ccc(F)cc1Cl` (stereo not shown) [Compound B-070] displayed a CC50 in the series with HepG2 of 8400 nM. Moreover, the “(YI) ratio of CC50/EC50, therapeutic index” value in the series on HepG2 (setting [3]) was 3.7. Also, in series [1] (compound at 10 μM), the “% Inhibition” value was found to be 99.88% and the Δ-Ct-HBV was determined as 9.77. For the same compound, the EC50 in series [1] (setting [4]) amounted to 2300 nM. The same compound displayed an EC90 in series [1] of 5900 nM. Further, the Assembly in series [2] worked out at 123%. `C#CCCCCN1CCN(CC2=C(C(=O)OC)C(c3ccc(F)cc3Cl)N=C(c3ccccn3)N2)CC1` (stereo not shown) [Compound B-073] yielded a CC50 in the series with HepG2 of 3700 nM. In addition, the “(YI) ratio of CC50/EC50, therapeutic index” value in the series with HepG2 (setting [3]) came out at 0.5. In series [1] (compound at 10 μM), the “% Inhibition” value is 64.44% and the Δ-Ct-HBV is recorded as 1.5. Besides, in series [1] (setting [4]), the EC50 came out at 7600 nM. Moreover, the EC90 in series [1] is greater than 10000 nM. Besides, the Assembly in series [2] was found to be 69%. As to `COC(=O)C1=C(CN2CCNC(=O)CC2)NC(c2ccccn2)=NC1c1ccc(F)cc1Cl` (stereo not shown) [Compound B-120], the CC50 with HepG2 was 32000 nM. In the series on HepG2 (setting [3]), the “(YI) ratio of CC50/EC50, therapeutic index” value turned out to be 99. In addition, in series [1] (compound at 10 μM), the “% Inhibition” value turned out to be 99.87% and the Δ-Ct-HBV is reported as 9.65. Also, in series [1] (setting [4]), the EC50 turned out to be 300 nM. Besides, the 90% effect level in series [1] (EC90) was put at 900 nM. The Assembly in series [2] amounted to 96%. As for `COC(=O)C1=C(CCl)NC(c2ccccn2)=NC1c1ccc(F)cc1Cl` (stereo not shown) [HAP2, reference compound], the Assembly in series [2] worked out at 99%.

The record behind these values is patent US20170226121A1, “MODULATORS OF VIRUS ASSEMBLY AS ANTIVIRAL AGENTS” (Indiana University Research and Technology Corporation, priority 2011, published 2017).
